Results on one molecule are retold here after patent US8623911B2, “Boron-containing small molecules as anti-protozoal agent” (Anacor Pharmaceuticals, Inc., priority 2010, dated 2014).

Data set [1] has as its system LAB 110 Eatro strain of T. b. brucei. The data set is described as follows: Acute Murine Model A [Murine Stage 1 HAT]. The data set is classed as in vivo. As for the experimental part: Female Swiss Webster mice were inoculated with 250,000 parasites of the LAB 110 Eatro strain of T. b. brucei. 24 hrs post-infection, treatment was initiated by administration of a compound of the invention BID for 4 days with 20 mg/kg/dose (40 mg/kg/day) intraperitoneally (IP) or orally (PO), 5 mg/kg BID or 10 mg/kg BID orally (PO). 3 mice per group were treated with a particular compound of the invention. Mice were checked for parasitemia weekly by microscopic examination of smears prepared from tail vein blood. Animals remaining parasite free for more than 30 days beyond the end of the treatment period were considered cured. Control untreated animals typically succumbed to the infection within 4-5 days following i.p. inoculation with parasites. Mice were monitored for 30 days for survival. Pentamidine at 2 mg/kg IP was used as the positive control. After 10 days, 0% of the untreated mice were parasite free. After 10 days, 67% of mice treated PO with 10 mg/kg BID of N-(1-Hydroxy-3,4-dihydro-1H-benzo[c][1,2]oxaborinin-7-yl)-4-methoxy-benzamide (M19) were parasite free. After 30 days, 100% of mice treated PO with 10 mg/kg BID of 4-fluoro-N-(1-hydroxy-3,4-dihydro-1H-benzo[c][1,2]oxaborinin-7-yl)-2-trifluoromethyl-benzamide (M1) were parasite free.

For data set [2], the system named is TREU 667 strain of T. b. brucei. As to the kind of experiment: Chronic CNS Model [Murine Stage 2 HAT]. In kind it is in vivo. The conditions noted are these: 50 mg/kg PO BID for 7 days, starting at Day 21 post-infection. As for the experimental part:
Mice were infected with 10,000 parasites of the TREU 667 strain of T. b. brucei. Twenty one days post-infection mice were treated with a dose of between 6 and 100 mg/kg of a compound of the invention, either BID or QD for 7 days intraperitoneally (IP) or orally (PO). Positive control mice were treated with Diminazene (10 mg/kg, IP) on Day 4 post-infection. Negative control mice were treated with Diminazene (10 mg/kg, PO) on Day 21. Since Diminazene is not able to penetrate the CNS, mice treated at Day 21 are not able to cure the infection. Starting 1 week after treatment, mice were checked for parasitemia by microscopic examination of smears prepared from tail vein blood. Parasite positive animals were immediately removed from the cages and euthanized. Animals were considered to be cured of a CNS infection if they were aparasitemic for at least 180 days after the end of the treatment period.

The next data set relates to MDCK-MDR1 cells. The data set is described as follows: in vitro. The data set is classed as in vitro ADME, canine. As to conditions: 3 μM test compound. The protocol: (§1) MDCK-MDR1 cells (Madin-Darby canine kidney cells transfected with the human MDR1 gene) (Dr. Piet Borst, NKI-AVL, Amsterdam, The Netherlands) were seeded at 300,000 cells per well onto microporous, polycarbonate membranes in 12 well Costar Transwell® plates (Corning, Corning, N.Y.). The medium was removed and replaced with fresh cell culture medium approximately 24 hours after plating. Cells attained confluency and were ready for use in the transport assay after 72 hours of incubation.
(§2) A stock solution of each compound was prepared in DMSO at a concentration of 10 mg/mL. Stock solutions were further diluted in DMSO to a concentration of 1 mM for use in the assay. The final assay concentration of test compound in each incubation mixture was 3 μM and the final concentration of DMSO was 0.3%.
(§3) Cell cultures were pre-incubated with Transport Medium (TM), consisting of Hanks Balanced Salt Solution (HBSS), 25 mM glucose, and 25 mM HEPES, with and without the known P-gp inhibitor GF120918 (2 μM final assay concentration), for 30-60 minutes prior to the addition of test and control compounds. Following the pre-incubation period, transepithelial electrical resistance (TEER) measurements were taken on each insert to insure the integrity of the monolayer. The range for TEER values was 45-85Ω·cm^2. Transport medium was removed. Fresh transport media (1.5 mL) with or without GF120918 was added to the basolateral chambers. Solutions of the test compound were diluted into TM and added to the appropriate wells in triplicate (400 μL/well) at a final concentration of 3 μM with and without GF120918. The final concentration of DMSO was 0.3%. Control compounds were tested in triplicate at a final concentration of 3 μM. Cell monolayers were incubated with shaking (160 rpm) at 37° C. with 5% CO2 in a humidified incubator for one hour. Following the incubation, all plates were removed from the incubator. Inserts were removed from the plates and TEER measurements were again taken on each insert prior to removing samples for analysis to ensure no degradation of the tight junctions during the assay. An aliquot was taken from each receiver and diluted 1:3 with organic solvent (methanol) to assess transport of each compound across the monolayer. An aliquot was taken from each donor and diluted 1:2 with organic solvent (methanol) and then again 1:50 with matrix (50% methanol/50% TM) to assess mass balance within the study. All samples were assayed for test compound concentrations by LC-MS/MS using electrospray ionization.

For a further data set, the system named is P-gp (human MDR1). As to the kind of experiment: in vitro. The data set is classed as in vitro ADME, canine. As to conditions: dog, MDCK-MDR1; 3 μM test compound; without GF120918; read-out: MDCK-MCR1 Papp. As for the experimental part: as §1, §2, §3

Usually Papp stands for a coefficient for how fast a substance crosses the barrier.

Structures are written as SMILES.

With `O=C(Nc1ccc2c(c1)B(O)OCC2)c1ccc(F)cc1C(F)(F)F` [M1, 4-Fluoro-N-(1-hydroxy-3,4-dihydro-1H-benzo[c][1,2]oxaborinin-7-yl)-2-trifluoromethyl-benzamide], the “mice parasite free after 30 days” value in data set [1] (female Swiss Webster mice, PO 10 mg/kg BID for 4 days, after 30 days) was 100%. The “Mean Survival Days” value in data set [1] (mice infected with T. b. brucei, 10 mg/kg, BID, orally, 4 days) came out at 30 days. Moreover, the “mice with absence of blood parasites through Day 180” value in data set [2] is reported as 100%. Also, in the data set on MDCK-MDR1 cells, the “MDCK-MCR1 AQ” value is on record as −0.02. The Papp at 1 h, 3 µM in the data set on P-gp (human MDR1) is 55.7 ×10⁻⁶ cm/s.
